Data as given in US20050282743A1, “Molecular interactions in cells” (Arbor Vita Corporation, priority 2001, published 2005).
Values belong to the compound of their own block, whether it stands above or below them. Ends that are not written are not given here. Peptide text beside a SMILES is read from it. * marks the point of attachment. Biotin = O=C1N[C@H]2[C@H](CS[C@H]2CCCCC(=O)*)N1

Experiments:
Type in all cases: binding
DLG1 (PDZ Domain 1, 2) = target: T1, DLG1 (PDZ Domain 1, 2) (Homo sapiens, UniProt Q12959); assay: G' assay, TABLE 12; details: A450 nm class of biotinylated PL peptide bound; 0 in conc columns = peptide 10 uM, protein 5 ug/ml
T1 construct: made in house; host or cells: E. coli (DH5alpha, BL21 or JM109)
Method in brief: (§1)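 PL peptide binding to PDZ domain protein, peptide at 10 uM; protein at 5 ug/ml unless another concentration is listed for Kd determination. Bound peptide read at A450 nm and binned into classes 0–5.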

NeDLG (PDZ Domain 1, 2) = target: T2, NeDLG (PDZ Domain 1, 2) (Homo sapiens, UniProt Q92796); assay: G' assay, TABLE 12; details: A450 nm class of biotinylated PL peptide bound; 0 in conc columns = peptide 10 uM, protein 5 ug/ml
T2 construct: When more than one PDZ domain was cloned, the DNA portion cloned represents the PDZ domains and the cDNA portion located between individual domains; made in house; host or cells: E. coli (DH5alpha, BL21 or JM109)
T2 sequence (Q92796 129-315 limits assumed): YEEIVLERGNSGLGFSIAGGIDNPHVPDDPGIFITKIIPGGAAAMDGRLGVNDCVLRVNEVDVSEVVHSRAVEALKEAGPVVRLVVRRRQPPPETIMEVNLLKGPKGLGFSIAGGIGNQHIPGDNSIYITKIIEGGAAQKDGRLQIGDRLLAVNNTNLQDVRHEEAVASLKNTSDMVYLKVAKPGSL
Method in brief: as §1

[1] = target: T3, PSD95 (PDZ Domain 1, 2, 3) (Homo sapiens, UniProt P78352); assay: G' assay, TABLE 12; details: A450 nm class of biotinylated PL peptide bound; 0 in conc columns = peptide 10 uM, protein 5 ug/ml
T3 construct: When more than one PDZ domain was cloned, the DNA portion cloned represents the PDZ domains and the cDNA portion located between individual domains; made in house; host or cells: E. coli (DH5alpha, BL21 or JM109)
Method in brief: as §1

[2] = target: T4, PDZ protein (GST-PDZ fusion) (Homo sapiens, UniProt P55196); assay: G' assay (10 uM PL peptide), results of TABLE 7 and TABLE 12; details: PDZ AF6, PDZ Domain 1
T4 construct: made in house; host or cells: E. coli (DH5alpha, BL21 or JM109)
Method in brief: (§2)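 Biotinylated PL peptides at 10 uM (vs 20 uM in G^0 assay) bound to GST-PDZ fusions; PDZ protein at 5 ug/ml unless another concentration listed. Bound peptide read as A450 nm, classified 0–5 (0 = A450 0; 5 = A450 >4 repeated).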

[3] = target: T5, PDZ protein (GST-PDZ fusion) (Homo sapiens, UniProt O95049); assay: as above
T5 construct: made in house; host or cells: E. coli (DH5alpha, BL21 or JM109)
T5 sequence (O95049 1-919): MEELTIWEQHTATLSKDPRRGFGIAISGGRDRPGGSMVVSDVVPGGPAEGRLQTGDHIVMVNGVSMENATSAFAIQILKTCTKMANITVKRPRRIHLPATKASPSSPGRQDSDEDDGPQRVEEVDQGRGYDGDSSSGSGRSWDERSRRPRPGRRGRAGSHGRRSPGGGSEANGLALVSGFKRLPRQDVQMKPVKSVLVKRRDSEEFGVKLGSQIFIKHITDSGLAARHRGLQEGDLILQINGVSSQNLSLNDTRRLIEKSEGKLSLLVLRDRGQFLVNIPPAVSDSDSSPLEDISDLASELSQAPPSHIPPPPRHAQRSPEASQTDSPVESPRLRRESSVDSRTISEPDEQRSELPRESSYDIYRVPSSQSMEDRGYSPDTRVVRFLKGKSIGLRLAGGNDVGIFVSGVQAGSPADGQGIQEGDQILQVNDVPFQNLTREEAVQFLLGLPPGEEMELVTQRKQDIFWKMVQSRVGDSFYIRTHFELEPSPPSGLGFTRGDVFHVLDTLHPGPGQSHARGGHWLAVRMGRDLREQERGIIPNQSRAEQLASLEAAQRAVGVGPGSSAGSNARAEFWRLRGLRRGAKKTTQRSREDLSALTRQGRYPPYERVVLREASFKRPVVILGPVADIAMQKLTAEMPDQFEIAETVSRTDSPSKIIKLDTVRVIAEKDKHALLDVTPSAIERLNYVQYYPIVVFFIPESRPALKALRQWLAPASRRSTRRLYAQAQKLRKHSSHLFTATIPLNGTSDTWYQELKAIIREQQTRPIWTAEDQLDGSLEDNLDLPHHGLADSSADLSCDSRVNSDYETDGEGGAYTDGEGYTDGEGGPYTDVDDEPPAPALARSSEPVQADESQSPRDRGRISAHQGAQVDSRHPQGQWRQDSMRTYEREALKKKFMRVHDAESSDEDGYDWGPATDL
Method in brief: as §2

KIAA807 = target: T6, KIAA807 (Homo sapiens, UniProt Q6P0Q8); assay: G' assay, TABLE 12; details: A450 nm class of biotinylated PL peptide bound; 0 in conc columns = peptide 10 uM, protein 5 ug/ml
T6 construct: made in house; host or cells: E. coli (DH5alpha, BL21 or JM109)
T6 sequence (Q6P0Q8 1104-1192 limits assumed): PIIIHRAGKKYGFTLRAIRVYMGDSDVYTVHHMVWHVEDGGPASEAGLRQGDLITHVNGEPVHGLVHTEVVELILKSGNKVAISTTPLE
Method in brief: as §1

[4] = target: T7, PDZ protein (GST-PDZ fusion) (Homo sapiens, UniProt Q9ULJ8); assay: G' assay (10 uM PL peptide), results of TABLE 7 and TABLE 12; details: PDZ KIAA1222, PDZ Domain 1; PL peptide 10 uM
T7 construct: made in house; host or cells: E. coli (DH5alpha, BL21 or JM109)
Method in brief: as §2

T4 sequence (P55196 whole entry, the tested form may be a part): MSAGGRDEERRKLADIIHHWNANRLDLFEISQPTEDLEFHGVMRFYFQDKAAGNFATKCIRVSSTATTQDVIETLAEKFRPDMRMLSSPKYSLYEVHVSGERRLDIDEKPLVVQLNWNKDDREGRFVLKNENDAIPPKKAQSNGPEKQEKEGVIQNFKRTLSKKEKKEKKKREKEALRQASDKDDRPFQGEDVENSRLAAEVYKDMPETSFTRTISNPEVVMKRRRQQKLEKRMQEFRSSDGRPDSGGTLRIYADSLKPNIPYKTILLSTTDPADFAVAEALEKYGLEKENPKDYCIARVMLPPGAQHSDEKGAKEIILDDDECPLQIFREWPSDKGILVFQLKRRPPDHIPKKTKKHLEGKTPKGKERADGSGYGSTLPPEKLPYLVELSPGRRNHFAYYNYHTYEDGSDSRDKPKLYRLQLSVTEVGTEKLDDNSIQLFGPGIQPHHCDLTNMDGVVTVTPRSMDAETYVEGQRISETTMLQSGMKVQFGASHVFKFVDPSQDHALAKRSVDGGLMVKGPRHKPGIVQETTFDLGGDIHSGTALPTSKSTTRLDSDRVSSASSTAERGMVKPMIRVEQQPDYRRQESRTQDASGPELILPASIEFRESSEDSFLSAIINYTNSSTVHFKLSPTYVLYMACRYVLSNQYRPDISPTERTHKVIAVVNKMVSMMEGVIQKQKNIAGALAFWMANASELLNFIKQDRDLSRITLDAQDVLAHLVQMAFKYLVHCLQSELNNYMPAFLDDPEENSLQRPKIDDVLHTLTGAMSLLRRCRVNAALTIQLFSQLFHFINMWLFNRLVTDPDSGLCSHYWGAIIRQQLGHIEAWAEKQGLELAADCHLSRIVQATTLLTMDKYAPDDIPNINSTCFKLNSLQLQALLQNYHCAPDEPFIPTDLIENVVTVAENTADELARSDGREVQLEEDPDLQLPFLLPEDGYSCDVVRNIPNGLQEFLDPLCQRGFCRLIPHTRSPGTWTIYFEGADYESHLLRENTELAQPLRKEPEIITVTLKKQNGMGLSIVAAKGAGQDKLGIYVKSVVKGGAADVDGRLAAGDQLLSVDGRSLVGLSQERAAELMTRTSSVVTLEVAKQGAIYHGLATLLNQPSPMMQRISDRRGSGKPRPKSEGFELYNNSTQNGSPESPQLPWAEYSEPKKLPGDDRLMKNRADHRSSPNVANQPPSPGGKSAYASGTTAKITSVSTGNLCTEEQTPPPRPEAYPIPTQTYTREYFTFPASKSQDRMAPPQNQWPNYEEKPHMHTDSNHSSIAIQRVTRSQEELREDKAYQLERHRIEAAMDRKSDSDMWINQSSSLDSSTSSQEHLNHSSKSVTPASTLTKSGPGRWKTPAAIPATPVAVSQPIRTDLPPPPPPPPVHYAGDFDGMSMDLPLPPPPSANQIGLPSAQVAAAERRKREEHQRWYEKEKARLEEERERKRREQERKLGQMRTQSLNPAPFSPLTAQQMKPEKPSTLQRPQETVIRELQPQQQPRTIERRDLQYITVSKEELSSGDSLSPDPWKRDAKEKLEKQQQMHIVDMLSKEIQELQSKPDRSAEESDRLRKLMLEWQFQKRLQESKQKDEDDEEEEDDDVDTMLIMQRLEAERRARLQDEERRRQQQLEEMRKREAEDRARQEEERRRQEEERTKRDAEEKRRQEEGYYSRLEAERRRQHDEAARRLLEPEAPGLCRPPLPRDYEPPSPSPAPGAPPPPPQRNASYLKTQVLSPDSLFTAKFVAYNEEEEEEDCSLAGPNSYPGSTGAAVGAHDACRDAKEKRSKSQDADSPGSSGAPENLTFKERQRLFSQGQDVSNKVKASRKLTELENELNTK
T3 sequence (P78352 58-398 limits assumed): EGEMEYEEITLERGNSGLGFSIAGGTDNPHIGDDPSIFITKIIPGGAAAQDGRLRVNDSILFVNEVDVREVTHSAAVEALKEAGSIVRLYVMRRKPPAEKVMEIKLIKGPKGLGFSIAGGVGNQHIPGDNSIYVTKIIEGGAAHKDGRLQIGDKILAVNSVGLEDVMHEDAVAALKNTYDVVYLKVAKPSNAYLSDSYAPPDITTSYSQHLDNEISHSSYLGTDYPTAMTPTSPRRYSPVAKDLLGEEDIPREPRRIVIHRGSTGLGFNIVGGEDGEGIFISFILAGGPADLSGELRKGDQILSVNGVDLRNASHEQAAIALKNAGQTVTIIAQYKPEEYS
T1 sequence (Q12959 213-413 limits assumed): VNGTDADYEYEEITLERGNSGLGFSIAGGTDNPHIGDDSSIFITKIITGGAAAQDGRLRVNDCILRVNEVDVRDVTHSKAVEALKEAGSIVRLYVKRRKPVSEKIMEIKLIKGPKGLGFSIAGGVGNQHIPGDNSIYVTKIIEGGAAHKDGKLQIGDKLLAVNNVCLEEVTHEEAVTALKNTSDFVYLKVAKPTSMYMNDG
T7 sequence (Q9ULJ8 whole entry, the tested form may be a part): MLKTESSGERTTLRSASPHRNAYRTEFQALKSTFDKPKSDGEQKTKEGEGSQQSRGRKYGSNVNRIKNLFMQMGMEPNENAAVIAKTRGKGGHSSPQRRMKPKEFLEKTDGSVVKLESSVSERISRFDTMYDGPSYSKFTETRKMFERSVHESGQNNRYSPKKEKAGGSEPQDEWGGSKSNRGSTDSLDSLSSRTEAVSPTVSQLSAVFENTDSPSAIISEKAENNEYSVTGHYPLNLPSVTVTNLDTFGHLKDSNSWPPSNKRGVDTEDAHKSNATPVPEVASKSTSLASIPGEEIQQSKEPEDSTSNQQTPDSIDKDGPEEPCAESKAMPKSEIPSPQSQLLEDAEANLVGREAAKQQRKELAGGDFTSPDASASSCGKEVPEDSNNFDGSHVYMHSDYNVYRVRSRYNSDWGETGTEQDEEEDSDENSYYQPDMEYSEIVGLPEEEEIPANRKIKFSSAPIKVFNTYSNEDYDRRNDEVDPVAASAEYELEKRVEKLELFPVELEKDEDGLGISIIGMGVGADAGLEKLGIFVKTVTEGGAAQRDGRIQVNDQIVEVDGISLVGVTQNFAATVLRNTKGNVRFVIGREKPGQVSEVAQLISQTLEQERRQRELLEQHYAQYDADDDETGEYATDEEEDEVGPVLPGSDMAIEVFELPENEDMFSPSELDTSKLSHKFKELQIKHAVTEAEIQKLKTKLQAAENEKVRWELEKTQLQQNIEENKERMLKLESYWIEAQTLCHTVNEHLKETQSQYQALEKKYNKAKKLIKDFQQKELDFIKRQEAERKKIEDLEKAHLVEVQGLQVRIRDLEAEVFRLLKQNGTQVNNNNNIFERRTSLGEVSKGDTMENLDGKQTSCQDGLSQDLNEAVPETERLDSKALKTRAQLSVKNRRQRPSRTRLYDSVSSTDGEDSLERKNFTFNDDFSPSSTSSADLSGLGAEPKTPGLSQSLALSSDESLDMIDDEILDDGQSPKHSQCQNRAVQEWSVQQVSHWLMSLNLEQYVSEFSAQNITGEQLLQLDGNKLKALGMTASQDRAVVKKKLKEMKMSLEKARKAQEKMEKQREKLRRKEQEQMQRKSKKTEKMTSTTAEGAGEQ

Classification [2]: 1 (A450 nm 0-1)
Compound: KTMPAATYRLLTGQEQPVYL (Biotin-KTMPAATYRLLTGQEQPVYL) [MINT-3]

Classification (KIAA807): 5 (A450 nm of 4 more than 2× repeated)
Compound: QATSRNGHSARQHVVADTEL (Biotin-QATSRNGHSARQHVVADTEL) [CD34]

Classification (DLG1 (PDZ Domain 1, 2)): 2 (A450 nm 1-2) | Classification (NeDLG (PDZ Domain 1, 2)): 1 (A450 nm 0-1) | Classification [1]: 1 (A450 nm 0-1)
Compound: CC[C@H](C)[C@H](NC(=O)[C@H](CCC(=O)O)NC(=O)[C@H](CC(N)=O)NC(=O)[C@H](CCCNC(=N)N)NC(=O)[C@H](Cc1ccccc1)NC(=O)[C@H](CC(N)=O)NC(=O)[C@H](CO)NC(=O)[C@H](CC(N)=O)NC(=O)[C@H](CCC(=O)O)NC(=O)[C@H](CO)NC(=O)[C@H](CC(=O)O)NC(=O)[C@H](CO)NC(=O)[C@@H](NC(=O)[C@@H](NC(=O)[C@H](CC(=O)O)NC(=O)[C@H](CCCCN)NC(=O)CCCC[C@@H]1SC[C@@H]2NC(=O)N[C@@H]21)[C@@H](C)CC)[C@@H](C)O)C(=O)N[C@@H](CCC(N)=O)C(=O)N[C@@H](CO)C(=O)N[C@@H](CC(C)C)C(=O)N[C@H](C(=O)O)C(C)C [CD95] (Biotin-KDITSDSENSNFRNEIQSLV-OH; C-terminus assumed)

The next lines start with the compound.

Compound: CC[C@H](C)[C@H](NC(=O)[C@H](CC(=O)O)NC(=O)[C@H](CCC(=O)O)NC(=O)[C@H](CCCNC(=N)N)NC(=O)[C@@H](NC(=O)CCCC[C@@H]1SC[C@@H]2NC(=O)N[C@@H]21)[C@@H](C)O)C(=O)N[C@@H](Cc1ccc(O)cc1)C(=O)N[C@H](C(=O)N[C@@H](CC(N)=O)C(=O)N[C@@H](Cc1ccc(O)cc1)C(=O)N1CCC[C@H]1C(=O)N[C@H](C(=O)N[C@@H](Cc1ccccc1)C(=O)N[C@@H](CO)C(=O)N[C@@H](CCCNC(=N)N)C(=O)N[C@@H](CCCNC(=N)N)C(=O)N1CCC[C@H]1C(=O)N[C@@H](CCCCN)C(=O)N[C@H](C(=O)N[C@@H](CCCNC(=N)N)C(=O)N[C@H](C(=O)O)C(C)C)[C@@H](C)O)[C@@H](C)O)C(C)C [DNAM-1] (Biotin-TREDIYVNYPTFSRRPKTRV-OH; C-terminus assumed)
Classification (DLG1 (PDZ Domain 1, 2)): 1 (A450 nm 0-1) | Classification (NeDLG (PDZ Domain 1, 2)): 2 (A450 nm 1-2) | Classification [1]: 2 (A450 nm 1-2)

Compound: CC[C@H](C)[C@H](NC(=O)[C@H](Cc1ccc(O)cc1)NC(=O)[C@H](CC(C)C)NC(=O)[C@H](CCC(N)=O)NC(=O)[C@H](Cc1c[nH]cn1)NC(=O)[C@H](CO)NC(=O)[C@H](C)NC(=O)[C@H](CC(C)C)NC(=O)[C@@H](NC(=O)[C@H](CC(=O)O)NC(=O)[C@H](CCSC)NC(=O)[C@H](Cc1ccccc1)NC(=O)[C@@H]1CCCN1C(=O)[C@H](CCCNC(=N)N)NC(=O)[C@@H](NC(=O)[C@H](CC(C)C)NC(=O)[C@H](CC(N)=O)NC(=O)[C@H](CC(=O)O)NC(=O)[C@@H](NC(=O)[C@H](CO)NC(=O)CCCC[C@@H]1SC[C@@H]2NC(=O)N[C@@H]21)[C@@H](C)O)C(C)C)[C@@H](C)O)C(=O)O [presenilin-2] (Biotin-STDNLVRPFMDTLASHQLYI-OH; C-terminus assumed)
Classification [2]: 3 (A450 nm 2-3)

Compound: ARHRVTSYTSSSVNVSSNL (Biotin-ARHRVTSYTSSSVNVSSNL) [IL-8RB]
Classification [1]: 1 (A450 nm 0-1)

Compound: ISGTPTSTMVHGMTSSSSVV (Biotin-ISGTPTSTMVHGMTSSSSVV) [Clasp-2]
Classification (NeDLG (PDZ Domain 1, 2)): 2 (A450 nm 1-2) | Classification [1]: 2 (A450 nm 1-2)

Compound: PYSELNYETSHYPASPDSWV (Biotin-PYSELNYETSHYPASPDSWV) [catenin - delta 2]
Classification ([3]; PDZ ZO-3, PDZ Domain 3): 3 (A450 nm 2-3)

Compound: CC[C@H](C)[C@H](NC(=O)[C@H](CO)NC(=O)[C@H](CCC(=O)O)NC(=O)[C@H](Cc1ccc(O)cc1)NC(=O)[C@H](CC(=O)O)NC(=O)[C@H](CC(N)=O)NC(=O)[C@H](CCC(=O)O)NC(=O)[C@H](CCCCN)NC(=O)CCCC[C@@H]1SC[C@@H]2NC(=O)N[C@@H]21)C(=O)N[C@@H](CO)C(=O)N[C@@H](CC(=O)O)C(=O)N[C@@H](CC(C)C)C(=O)N[C@@H](CCC(N)=O)C(=O)N[C@@H](CCC(N)=O)C(=O)NCC(=O)N[C@@H](CCCNC(=N)N)C(=O)N[C@@H](CC(=O)O)C(=O)N[C@H](C(=O)N[C@H](C(=O)N[C@@H](CCCNC(=N)N)C(=O)N[C@@H](CC(C)C)C(=O)O)[C@@H](C)O)[C@@H](C)CC [PAG] (Biotin-KENDYESISDLQQGRDITRL-OH; C-terminus assumed)
Classification (KIAA807): 5 (A450 nm of 4 more than 2× repeated)

Compound: A2AA_HUMAN (modified) (Biotin-HDFRRAFKKILARGDRKRIV; not fully specified)
Classification ([3]; PDZ ZO-3, PDZ Domain 2): 3 (A450 nm 2-3)

Compound: CC[C@H](C)[C@H](NC(=O)[C@H](CCCCN)NC(=O)[C@@H](NC(=O)[C@H](CO)NC(=O)[C@@H]1CCCN1C(=O)[C@H](Cc1ccccc1)NC(=O)[C@@H](NC(=O)[C@@H](NC(=O)[C@H](CCCNC(=N)N)NC(=O)[C@H](CCC(=O)O)NC(=O)[C@H](CC(C)C)NC(=O)[C@H](CC(C)C)NC(=O)[C@H](CC(C)C)NC(=O)[C@@H](NC(=O)CNC(=O)[C@@H](NC(=O)CCCC[C@@H]1SC[C@@H]2NC(=O)N[C@@H]21)C(C)C)[C@@H](C)O)C(C)C)[C@@H](C)CC)C(C)C)C(=O)N[C@@H](C)C(=O)N[C@H](C(=O)N[C@@H](CC(C)C)C(=O)N[C@H](C(=O)O)C(C)C)[C@@H](C)O [Adenovirus E4 Type9]
Classification [4]: 1 (A450 nm 0-1)

Compound: LASKSAEEGKQIPDSLSTDL (Biotin-LASKSAEEGKQIPDSLSTDL) [Dock2]
Classification (KIAA807): 5 (A450 nm of 4 more than 2× repeated)

Compound: ELLQFCRTPNPALKNGQYWV (Biotin-ELLQFCRTPNPALKNGQYWV)
Classification ([3]; PDZ ZO-3, PDZ Domain 1): 2 (A450 nm 1-2) | Classification ([3]; PDZ ZO-3, PDZ Domain 3): 5 (A450 nm of 4 more than 2× repeated) | Classification [2]: 5 (A450 nm of 4 more than 2× repeated)

Compound: GPVPGEPAKPKTSAHHATFV (Biotin-GPVPGEPAKPKTSAHHATFV)
Classification [2]: 1 (A450 nm 0-1)

Compound: CC[C@H](C)[C@H](NC(=O)[C@H](CCC(N)=O)NC(=O)CCCC[C@@H]1SC[C@@H]2NC(=O)N[C@@H]21)C(=O)N[C@@H](CO)C(=O)N1CCC[C@H]1C(=O)NCC(=O)NCC(=O)N[C@@H](CC(C)C)C(=O)N[C@@H](CCC(=O)O)C(=O)N1CCC[C@H]1C(=O)N1CCC[C@H]1C(=O)N[C@@H](CO)C(=O)N[C@@H](CCC(=O)O)C(=O)N[C@@H](CCCCN)C(=O)N[C@@H](Cc1c[nH]cn1)C(=O)N[C@@H](Cc1ccccc1)C(=O)N[C@@H](CCCNC(=N)N)C(=O)N[C@@H](CCC(=O)O)C(=O)N[C@H](C(=O)N[C@@H](CCC(=O)O)C(=O)N[C@H](C(=O)O)C(C)C)[C@@H](C)O [Tax]
Classification (DLG1 (PDZ Domain 1, 2)): 5 (A450 nm of 4 more than 2× repeated) | Classification (NeDLG (PDZ Domain 1, 2)): 5 (A450 nm of 4 more than 2× repeated) | Classification (KIAA807): 5 (A450 nm of 4 more than 2× repeated) | Classification [1]: 5 (A450 nm of 4 more than 2× repeated)
